Data published in the supplement of paper PMC10307832.

Tests used:
Test in all cases: relative viability (nuclei count vs DMSO), 5 days (fraction); higher = more cells survive
[1] = system: NCI-H1563
Procedure, shortened: (§1)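 Relative viability is defined as nuclei in treated wells over nuclei in vehicle wells. Duplicate plates were run and medians reported. Lung cancer cell lines in 1536-well plates were dosed by pin tool one day after seeding, with one drug or with a fixed anchor-drug dose plus five library-drug doses (not always all listed) in √10 steps, and nuclei were counted after 5 days.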

[2] = system: NCI-H1915
Procedure, shortened: as §1

[3] = system: NCI-H647
Procedure, shortened: as §1

[4] = system: LK-2
Procedure, shortened: as §1

[5] = system: EMC-BAC-2
Procedure, shortened: as §1

[6] = system: HCC-78
Procedure, shortened: as §1

[7] = system: HCC-15
Procedure, shortened: as §1

[8] = system: BEN
Procedure, shortened: as §1

[9] = system: SK-MES-1
Procedure, shortened: as §1

[10] = system: EKVX
Procedure, shortened: as §1

[11] = system: 201T
Procedure, shortened: as §1

[12] = system: NCI-H2405
Procedure, shortened: as §1

[13] = system: COR-L 105
Procedure, shortened: as §1

[14] = system: COR-L23
Procedure, shortened: as §1

[15] = system: NCI-H1734
Procedure, shortened: as §1

[16] = system: NCI-H1993
Procedure, shortened: as §1

[17] = system: A-427
Procedure, shortened: as §1

[18] = system: HOP-62
Procedure, shortened: as §1

[19] = system: PC-14
Procedure, shortened: as §1

[20] = system: NCI-H460
Procedure, shortened: as §1

[21] = system: HCC-366
Procedure, shortened: as §1

[22] = system: NCI-H522
Procedure, shortened: as §1

[23] = system: NCI-H661
Procedure, shortened: as §1

SMILES: CN1CCN(CCOc2cc(OC3CCOCC3)c3c(Nc4c(Cl)ccc5c4OCO5)ncnc3c2)CC1 [Saracatinib] + COc1cccc2cc(-c3nc([C@H]4CC[C@H](C(=O)O)CC4)n4ncnc(N)c34)[nH]c12 [OSI-027] (partner 0.5 µM)
- relative viability ([1]; first compound 0.02 µM): 0.703
- relative viability ([1]; first compound 0.2 µM): 0.663
- relative viability ([1]; first compound 0.6325 µM): 0.645
- relative viability ([1]; first compound 2 µM): 0.711
- relative viability ([2]; first compound 0.02 µM): 0.623
- relative viability ([2]; first compound 0.2 µM): 0.408
- relative viability ([2]; first compound 0.6325 µM): 0.587
- relative viability ([2]; first compound 2 µM): 0.474
- relative viability ([3]; first compound 0.02 µM): 0.584
- relative viability ([3]; first compound 0.2 µM): 0.65
- relative viability ([3]; first compound 0.6325 µM): 0.637
- relative viability ([3]; first compound 2 µM): 0.381
- relative viability ([4]; first compound 0.02 µM): 0.218
- relative viability ([4]; first compound 0.2 µM): 0.165
- relative viability ([4]; first compound 0.6325 µM): 0.161
- relative viability ([4]; first compound 2 µM): 0.151
- relative viability ([5]; first compound 0.02 µM): 0.412
- relative viability ([5]; first compound 0.2 µM): 0.322
- relative viability ([5]; first compound 0.6325 µM): 0.355
- relative viability ([5]; first compound 2 µM): 0.297
- relative viability ([6]; first compound 0.02 µM): 0.426
- relative viability ([6]; first compound 0.6325 µM): 0.379
- relative viability ([6]; first compound 2 µM): 0.317
- relative viability ([7]; first compound 0.02 µM): 0.806
- relative viability ([7]; first compound 0.2 µM): 0.586
- relative viability ([7]; first compound 0.6325 µM): 0.708
- relative viability ([7]; first compound 2 µM): 0.605
- relative viability ([8]; first compound 0.02 µM): 0.284
- relative viability ([8]; first compound 0.6325 µM): 0.309
- relative viability ([8]; first compound 2 µM): 0.261
- relative viability ([9]; first compound 0.02 µM): 0.609
- relative viability ([9]; first compound 0.2 µM): 0.603
- relative viability ([9]; first compound 0.6325 µM): 0.475
- relative viability ([9]; first compound 2 µM): 0.234
- relative viability ([10]; first compound 0.02 µM): 0.679
- relative viability ([10]; first compound 0.6325 µM): 0.746
- relative viability ([10]; first compound 2 µM): 0.456
- relative viability ([11]; first compound 0.02 µM): 0.725
- relative viability ([11]; first compound 0.2 µM): 0.53
- relative viability ([11]; first compound 0.6325 µM): 0.752
- relative viability ([11]; first compound 2 µM): 0.445
- relative viability ([12]; first compound 0.02 µM): 0.647
- relative viability ([12]; first compound 0.2 µM): 0.62
- relative viability ([12]; first compound 0.6325 µM): 0.649
- relative viability ([12]; first compound 2 µM): 0.38
- relative viability ([13]; first compound 0.02 µM): 0.837
- relative viability ([13]; first compound 0.2 µM): 0.628
- relative viability ([13]; first compound 0.6325 µM): 0.566
- relative viability ([13]; first compound 2 µM): 0.221
- relative viability ([14]; first compound 0.02 µM): 0.698
- relative viability ([14]; first compound 0.2 µM): 0.684
- relative viability ([14]; first compound 0.6325 µM): 0.746
- relative viability ([14]; first compound 2 µM): 0.641
- relative viability ([15]; first compound 0.02 µM): 0.635
- relative viability ([15]; first compound 0.6325 µM): 0.571
- relative viability ([15]; first compound 2 µM): 0.507
- relative viability ([16]; first compound 0.02 µM): 0.54
- relative viability ([16]; first compound 0.2 µM): 0.508
- relative viability ([16]; first compound 0.6325 µM): 0.497
- relative viability ([16]; first compound 2 µM): 0.525
- relative viability ([17]; first compound 0.02 µM): 0.506
- relative viability ([17]; first compound 0.2 µM): 0.409
- relative viability ([17]; first compound 0.6325 µM): 0.445
- relative viability ([17]; first compound 2 µM): 0.493
- relative viability ([18]; first compound 0.02 µM): 0.836
- relative viability ([18]; first compound 0.2 µM): 0.796
- relative viability ([18]; first compound 0.6325 µM): 0.794
- relative viability ([18]; first compound 2 µM): 0.773
- relative viability ([19]; first compound 0.02 µM): 0.81
- relative viability ([19]; first compound 0.2 µM): 0.406
- relative viability ([19]; first compound 0.6325 µM): 0.151
- relative viability ([19]; first compound 2 µM): 0.0888
- relative viability ([20]; first compound 0.02 µM): 0.656
- relative viability ([20]; first compound 0.2 µM): 0.394
- relative viability ([20]; first compound 0.6325 µM): 0.623
- relative viability ([20]; first compound 2 µM): 0.376
- relative viability ([21]; first compound 0.02 µM): 1.02
- relative viability ([21]; first compound 0.6325 µM): 0.757
- relative viability ([21]; first compound 2 µM): 0.385
- relative viability ([22]; first compound 0.02 µM): 0.703
- relative viability ([22]; first compound 0.6325 µM): 0.692
- relative viability ([22]; first compound 2 µM): 0.683
- relative viability ([23]; first compound 0.02 µM): 0.707
- relative viability ([23]; first compound 0.2 µM): 0.655
- relative viability ([23]; first compound 0.6325 µM): 0.502
- relative viability ([23]; first compound 2 µM): 0.467
